Consider 2 compounds from ChEMBL document CHEMBL3044704, “Synthesis, characterization, antioxidant, and anticancer studies of 6-[3-(4-chlorophenyl)-1H-pyrazol-4-yl]-3-[(2-naphthyloxy)methyl][1,2,4]triazolo[3,4-b][1,3,4]thiadiazole in HepG2 cell lines” (Med Chem Res, 2011).

As a reminder, the IC50 is the concentration that inhibits the measured activity by half.

In brackets after ≈: the same amount, converted by molar mass. Activity calls are given as the source filed them. The rule behind the calls is not given here.

A short description of test [1]: Antioxidant activity assessed as inhibition of ABTS radical production after 20 min by spectrophotometric analysis. The format is functional.
The subject of test [2] is Radical scavenging activity. The experiment in a line: Antioxidant activity assessed as inhibition of DPPH radical production after 20 min by spectrophotometric analysis. Format: functional. (Loss of DPPH colour is used to gauge radical scavenging.)
The subject of test [3] is HepG2. The experiment in a line: Induction of cell cycle arrest in Homo sapiens (human) HepG2 cells assessed as subG1 phase cells at 0.08 ug/ml after 24 hr by flow cytometric analysis (reference value: 3.57 +/- 0.03%). The format is functional. (A flow cytometer gives signals particle by particle.)
Test [4] relates to HepG2. In words: Induction of cell cycle arrest in Homo sapiens (human) HepG2 cells assessed as increase in subG1 phase cells after 24 hr by flow cytometric analysis. The format is functional, cell-based.
Test [5] concerns HepG2. In words: Induction of cell cycle arrest in Homo sapiens (human) HepG2 cells assessed as G2/M phase cells at 0.08 ug/ml after 24 hr by flow cytometric analysis (reference value: 12.92 +/- 0.27%). The format is functional.
Test [6] deals with HepG2. In words: Induction of cell cycle arrest in Homo sapiens (human) HepG2 cells assessed as S phase cells at 0.08 ug/ml after 24 hr by flow cytometric analysis (reference value: 32.84 +/- 1.06%). Format: functional.
Test [7] has as its system HepG2. The experiment in a line: Induction of cell cycle arrest in Homo sapiens (human) HepG2 cells assessed as G1 phase cells at 0.08 ug/ml after 24 hr by flow cytometric analysis (reference value: 50.68 +/- 1.42%). Format: functional.
Test [8] concerns HepG2. In words: Induction of cell cycle arrest in Homo sapiens (human) HepG2 cells assessed as G2/M phase cells at 0.06 ug/ml after 24 hr by flow cytometric analysis (reference value: 12.92 +/- 0.27%). The format is functional.
Test [9] deals with HepG2. The experiment in a line: Induction of cell cycle arrest in Homo sapiens (human) HepG2 cells assessed as S phase cells at 0.06 ug/ml after 24 hr by flow cytometric analysis (reference value: 32.84 +/- 1.06%). The format is functional.
The test system of test [10] is HepG2. In words: Cytotoxicity against Homo sapiens (human) HepG2 cells after 24 hr by MTT assay. The format is functional, cell-based. The settings on record: HepG2, 24 h. For orientation: Tetrazolium assays rely on reduction of a dye to a coloured formazan, in cell work by metabolically active cells.
Test [11] concerns HepG2. In words: Cytotoxicity against Homo sapiens (human) HepG2 cells assessed as inhibition of [3H]thymidine incorporation incubated for 3 hr prior to [3h]thymidine incorporation measured after 2 hr by liquid scintillation counting. Format: functional, cell-based.
Test [12] relates to HepG2. The experiment in a line: Induction of cell cycle arrest in Homo sapiens (human) HepG2 cells assessed as subG1 phase cells at 0.06 ug/ml after 24 hr by flow cytometric analysis (reference value: 3.57 +/- 0.03%). The format is functional.
Test [13] deals with HepG2. In words: Induction of cell cycle arrest in Homo sapiens (human) HepG2 cells assessed as G1 phase cells at 0.06 ug/ml after 24 hr by flow cytometric analysis (reference value: 50.68 +/- 1.42%). Format: functional.
Test [14] relates to HepG2. The experiment in a line: Cytotoxicity against Homo sapiens (human) HepG2 cells assessed as chromatin condensation after 24 hr by Hoechst-staining method. The format is functional, cell-based.

Turning to `O=C1O[C@H]([C@@H](O)CO)C(O)=C1O` [ASCORBIC ACID], the inhibition entry in [1] is “Active”. Besides, the IC50 in test [2] stood at 1.46 µg/mL (≈ 8.29 µM).

Turning to `Clc1ccc(-c2n[nH]cc2-c2nn3c(COc4ccc5ccccc5c4)nnc3s2)cc1`, the Activity in test [3] is 12.33%; in test [4], “Dose-dependent effect”; in test [5], 11.33%; in test [6], 23.68%; in test [7], 52.65%; in test [8], 10.58%. The Activity in test [9] was 28.82%; in test [12] it was 4%; in test [13], 56.59%; in test [14], “Dose-dependent effect”. The values for the IC50 in [10] and in [2] were 0.8 µg/mL (≈ 1.74 µM) and 1.023 µg/mL (≈ 2.23 µM), respectively. Further, the inhibition entry in [11] was “Dose-dependent effect”. Besides, in test [1], the inhibition entry is “Active”.
